Holding throughout (test): inhibition of tumour cell growth, NCI panel, 48 h
Assay [1] relates to MOLT-4.
Assay [2] has as its system SNB-75.
Assay [3] has as its system HCT-15.
Assay [4] deals with M19-MEL.
The subject of assay [5] is NCI-H226.
Assay [6] concerns HCC 2998.
In assay [7] the test system is IGROV-1.
Assay [8] deals with OVCAR-5.
The subject of assay [9] is KM-20L2.
In assay [10] the test system is PC-3.
Assay [11] deals with SK-MEL-2.
Assay [12] concerns T47D.
Assay [13] concerns SK-OV-3.
In assay [14] the test system is Hs-578T.
Assay [15] concerns SNB-19.
Assay [16] has as its system MCF7.
For assay [17], the system named is 786-0.
The test system of assay [18] is UO-31.
The test system of assay [19] is M14.
Assay [20] concerns UACC-257.

Molecules are shown by their SMILES. Values joined by “and” are separate entries in the source; they are usually repeats but may differ in a detail not shown here. Equal entries are not always repeated.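 Five compound concentrations were applied to cells in 96-well plates for 48 hours; endpoints were derived by simple linear interpolation of the resulting dose-response curve. GI50: concentration for 50% inhibition of growth.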 Active and inactive are the calls of the source. No stated cut-off is given here; in the data, active = GI50 up to about 1.1 µM and inactive = higher.

For the molecule `COc1cc2c(cc1OC)C(SC)C(=O)N(Cc1cccc(OC)c1OC)CC2` (configuration not stated), the GI50 in assay [1] was 2.33 µM (inactive); in [2] it was 3.3 µM (inactive); in assay [3], 0.718 µM; in assay [4], 1.2 µM (inactive); in assay [5] it was 3.21 µM (inactive); in assay [6] it was 2.46 µM (inactive). For the same molecule, the GI50 in [7] is 2.77 µM (inactive); in assay [8], 14.9 µM (inactive); in assay [9], 1.19 µM (inactive); in assay [10], 1.28 µM (inactive); in assay [11] it was 1.26 µM (inactive); in assay [12], 4.13 µM (inactive). The GI50 in assay [13] was 2.54 µM (inactive); in [14], 2.66 µM (inactive); in assay [15], 8.75 µM (inactive); in assay [16], 746 nM (active); in assay [17], 3.85 µM (inactive); in [18] it was 6.47 µM (inactive). Also, the GI50 in assay [19] is 2.28 µM (inactive); in assay [20], 2.95 µM (inactive).

For `c1ccc(-c2nnc(-c3nn(-c4ccccc4)c4nc5ccccc5nc34)o2)cc1`, the GI50 was 21.5 µM (inactive) in assay [1]; > 100 µM (inactive) in assay [2]; 43.5 µM in assay [3]; 47.8 µM (inactive) in [4]; 18.2 µM (inactive) in [5]; > 100 µM (inactive) in assay [6]. In addition, the GI50 in assay [7], in assay [8], in assay [9], in [11], in [13] and in assay [15] was > 100 µM (inactive) each time. Moreover, the GI50 in [17] was 46.9 µM (inactive); in assay [18], 37.2 µM (inactive); in assay [19], 79.1 µM (inactive); in assay [20], 64.3 µM (inactive).

For the molecule `NC1=NC(=O)/C(=C2\CCNC(=O)c3[nH]c(Br)cc32)N1` [HYMENIALDISINE], the GI50 in [1] was 4.28 µM (inactive) and 3.45 µM (inactive); in assay [2], 34.8 µM (inactive) and 40 µM (inactive); in assay [3] it was 29.7 µM and 42.5 µM; in assay [4], 48.5 µM (inactive); in assay [6], 57.9 µM (inactive) and 55.3 µM (inactive); in assay [8] it was > 52.1 µM (inactive) and > 57.5 µM (inactive). Further, the GI50 is 70.1 µM (inactive) in [9]; 56.6 µM (inactive) in assay [10]; 7.87 µM (inactive) in [12]; 38.6 µM (inactive) in assay [14]; 39.1 µM (inactive) and 48.2 µM (inactive) in [15]; 40.9 µM (inactive) and 80.7 µM (inactive) in assay [16]. The GI50 in assay [17] is 27.5 µM (inactive); in assay [18], 3.02 µM (inactive) and 5.6 µM (inactive); in assay [19], 9.89 µM (inactive); in assay [20] it was 23.7 µM (inactive) and 18.3 µM (inactive).

The record behind these values is ChEMBL document CHEMBL1201862, “PubChem BioAssay data set” (2004).
